Molecular target: T1, FGFR-1 (Homo sapiens, UniProt P11362)
T1 construct: GST; made in house
Test: FGFR-1 TR-FRET biochemical assay
Settings: 0.6 uM ATP, 5 nM FGFR1-GST; bounds given in nM
Outline: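 In this LANCE time-resolved FRET format, compounds at final 10 μM–0.128 nM (1% DMSO, 1:5 series) were preincubated before enzyme start. Reactions ran for one hour at room temperature with 0.6 uM ATP, 25 nM biotinylated poly GT and 5 nM GST-tagged FGFR1. Inhibition was calculated from the 665/615 nm ratio minus the ATP-free background.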

T1 sequence (P11362 22-822): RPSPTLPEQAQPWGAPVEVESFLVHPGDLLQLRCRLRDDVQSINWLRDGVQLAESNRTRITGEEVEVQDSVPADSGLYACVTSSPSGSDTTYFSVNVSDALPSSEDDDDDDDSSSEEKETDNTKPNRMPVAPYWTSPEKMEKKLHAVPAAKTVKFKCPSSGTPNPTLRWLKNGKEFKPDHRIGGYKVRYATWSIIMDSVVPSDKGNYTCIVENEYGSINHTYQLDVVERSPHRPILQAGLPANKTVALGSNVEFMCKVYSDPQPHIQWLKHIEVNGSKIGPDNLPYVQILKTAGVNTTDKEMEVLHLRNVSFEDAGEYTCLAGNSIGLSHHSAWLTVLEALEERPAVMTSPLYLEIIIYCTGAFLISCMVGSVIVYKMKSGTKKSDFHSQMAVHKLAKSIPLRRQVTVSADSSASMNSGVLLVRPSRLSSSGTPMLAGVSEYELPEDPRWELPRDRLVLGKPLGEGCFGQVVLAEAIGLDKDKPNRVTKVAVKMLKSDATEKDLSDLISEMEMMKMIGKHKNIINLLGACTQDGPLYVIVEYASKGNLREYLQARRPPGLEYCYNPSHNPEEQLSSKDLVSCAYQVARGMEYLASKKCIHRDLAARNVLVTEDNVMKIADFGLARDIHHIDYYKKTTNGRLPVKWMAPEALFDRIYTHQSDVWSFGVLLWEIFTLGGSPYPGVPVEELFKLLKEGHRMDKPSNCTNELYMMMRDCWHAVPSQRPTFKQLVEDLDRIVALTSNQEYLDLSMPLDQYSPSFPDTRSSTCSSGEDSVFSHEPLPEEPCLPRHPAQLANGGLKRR

| IC50 | SMILES |
| --- | --- |
| 10 to 100 nM | CC(C)(C)OC(=O)N1CCN(Cc2cc(-c3ccc(NC(=O)Nc4cc(C(F)(F)F)ccc4F)c(F)c3)c3c(N)ncnn23)CC1 [Example 82, tert-butyl 4-[(4-amino-5-{3-fluoro-4-[({[2-fluoro-5-(trifluoromethyl)phenyl]amino}carbonyl)amino]phenyl}pyrrolo[2,1-f][1,2,4]triazin-7-yl)methyl]piperazine-1-carboxylate] |
| < 10 nM | Nc1ncnn2c(CN3CCOCC3)cc(-c3ccc(NC(=O)Nc4ccc(Cl)c(C(F)(F)F)c4)nc3)c12 [Example 19, N-{5-[4-amino-7-(morpholin-4-ylmethyl)pyrrolo[2,1-f][1,2,4]triazin-5-yl]pyridin-2-yl}-N′-[4-chloro-3-(trifluoromethyl)phenyl]urea] |
| 10 to 100 nM | COc1cc(-c2cc(CN3CCOCC3)n3ncnc(N)c23)ccc1NC(=O)Nc1cccc(OC(F)(F)F)c1 [Example 33, N-{4-[4-amino-7-(morpholin-4-ylmethyl)pyrrolo[2,1-f][1,2,4]triazin-5-yl]-2-methoxyphenyl}-N′-[3-(trifluoromethoxy)phenyl]urea] |
| < 10 nM | Nc1ncnn2c(CCCN3CCCC3)cc(-c3ccc(NC(=O)Nc4cc(C(F)(F)F)ccc4F)c(F)c3)c12 [Example 186, N-{4-[4-amino-7-(3-pyrrolidin-1-ylpropyl)pyrrolo[2,1-f][1,2,4]triazin-5-yl]-2-fluorophenyl}-N′-[2-fluoro-5-(trifluoromethyl)phenyl]urea] |
| 10 to 100 nM | COc1cc(NC(=O)Nc2cc(C(F)(F)F)ccn2)ccc1-c1cc(CN2CCOCC2)n2ncnc(N)c12 [Example 38, N-{4-[4-amino-7-(morpholin-4-ylmethyl)pyrrolo[2,1-f][1,2,4]triazin-5-yl]-3-methoxyphenyl}-N′-[4-(trifluoromethyl)pyridin-2-yl]urea] |
| 10 to 100 nM | CC(C)S(=O)(=O)N1CCN(Cc2cc(-c3ccc(NC(=O)Nc4cc(C(F)(F)F)ccc4F)cc3)c3c(N)ncnn23)CC1 [Example 85, N-[4-(4-amino-7-{[4(isopropylsulfonyl)piperazin-1-yl]methyl}pyrrolo[2,1-f][1,2,4]triazin-5-yl)phenyl]-N′-[2-fluoro-5-(trifluoromethyl)phenyl]urea] |
| < 10 nM | Cc1cc(-c2cc(CN3CCNC(=O)C3)n3ncnc(N)c23)ccc1NC(=O)Nc1cc(C(F)(F)F)ccc1F [Example 165, N-(4-{4-amino-7-[(3-oxopiperazin-1-yl)methyl]-pyrrolo[2,1-f][1,2,4]triazin-5-yl}-2-methylphenyl)-N′-[2-fluoro-5-(trifluoromethyl)-phenyl]urea] |
| 10 to 100 nM | Nc1ncnn2c(CN3CCOCC3)cc(-c3ccc(NC(=O)Nc4cccc(Cl)c4)c(F)c3)c12 [Example 66, N-4-[4-amino-7-(morpholin-4-ylmethyl)pyrrolo[2,1-f][1,2,4]triazin-5-yl]-2-fluorophenyl-N′-(3-chlorophenyl)urea] |
| < 10 nM | Nc1ncnn2c(CN3CCOCC3)cc(-c3ccc(NC(=O)Nc4cc(C(F)(F)F)ccn4)cc3F)c12 [Example 11, N-{4-[4-amino-7-(morpholin-4-ylmethyl)pyrrolo[2,1-f][1,2,4]triazin-5-yl]-3-fluorophenyl}-N′-[4-(trifluoromethyl)pyridin-2-yl]urea] |
| < 10 nM | Nc1ncnn2c(CCCN3CCOCC3)cc(-c3ccc(NC(=O)Nc4cc(C(F)(F)F)ccc4F)c(F)c3)c12 [Example 109, N-{4-[4-amino-7-(3-morpholin-4-ylpropyl)pyrrolo[2,1-f][1,2,4]triazin-5-yl]-2-fluorophenyl}-N′-[2-fluoro-5-(trifluoromethyl)phenyl]urea] |
| 10 to 100 nM | Nc1ncnn2c(CN3CCOCC3)cc(-c3ccc(NC(=O)Nc4cccc(C(F)(F)F)c4F)nc3)c12 [Example 21, N-{5-[4-amino-7-(morpholin-4-ylmethyl)pyrrolo[2,1-f][1,2,4]triazin-5-yl]pyridin-2-yl}-N′-[2-fluoro-3-(trifluoromethyl)phenyl]urea] |
| < 10 nM | Cc1cc(-c2cc(CN3CCCOCC3)n3ncnc(N)c23)ccc1NC(=O)Nc1cc(C(F)(F)F)ccc1F [Example 181, N-{4-[4-amino-7-(1,4-oxazepan-4-ylmethyl)pyrrolo[2,1-f][1,2,4]triazin-5-yl]-2-methylphenyl}-N′-[2-fluoro-5-(trifluoromethyl)phenyl]urea] |

Further lines, the compound ahead of its results:

| SMILES | IC50 |
| --- | --- |
| Nc1ncnn2c(C(=O)C3CNCCO3)cc(-c3ccc(NC(=O)Nc4cc(C(F)(F)F)ccc4F)c(F)c3)c12 (centres unmarked) [Example 289, N-{4-[4-amino-7-(morpholin-2-ylcarbonyl)pyrrolo[2,1-f][1,2,4]triazin-5-yl]-2-fluorophenyl}-N′-[2-fluoro-5-(trifluoromethyl)phenyl]urea] | 10 to 100 nM |
| CC(O)c1cc(-c2ccc(NC(=O)Nc3cc(C(F)(F)F)ccc3F)c(F)c2)c2c(N)ncnn12 (centres unmarked) [Example 252, N-{4-[4-amino-7-(1-hydroxyethyl)pyrrolo[2,1-f][1,2,4]triazin-5-yl]-2-fluorophenyl}-N′-[2-fluoro-5-(trifluoromethyl)phenyl]urea] | 10 to 100 nM |
| CN(C)CCCc1cc(-c2ccc(NC(=O)Nc3cc(C(F)(F)F)ccc3F)c(F)c2)c2c(N)ncnn12 [Example 194, N-(4-{4-amino-7-[3-(dimethylamino)propyl]pyrrolo[2,1-f][1,2,4]triazin-5-yl}-2-fluorophenyl)-N′-[2-fluoro-5-(trifluoromethyl)phenyl]urea] | < 10 nM |
| CC(C)(O)c1cc(-c2ccc(NC(=O)Nc3cc(C(F)(F)F)ccc3F)cc2)c2c(N)ncnn12 [Example 104, N-{4-[4-amino-7-(1-hydroxy-1-methylethyl)pyrrolo[2,1-f][1,2,4]triazin-5-yl]phenyl}-N′-[2-fluoro-5-(trifluoromethyl)phenyl]urea] | 10 to 100 nM |
| Nc1ncnn2c(C3CCNCC3)cc(-c3ccc(NC(=O)Nc4cc(C(F)(F)F)ccc4F)c(F)c3)c12 [Example 111, N-[4-(4-amino-7-piperidin-4-ylpyrrolo[2,1-f][1,2,4]-triazin-5-yl)-2-fluorophenyl]-N′-[2-fluoro-5-(trifluoromethyl)phenyl]urea] | < 10 nM |
| Nc1ncnn2c(-c3cnco3)cc(-c3ccc(NC(=O)Nc4cc(C(F)(F)F)ccn4)c(F)c3)c12 [Example 273, N-{4-[4-amino-7-(1,3-oxazol-5-yl)pyrrolo[2,1-f][1,2,4]triazin-5-yl]-2fluorophenyl}-N′-[4-(trifluoromethyl)pyridin-2-yl]urea] | 10 to 100 nM |
| Nc1ncnn2c(C3CCN(C(=O)CO)CC3)cc(-c3ccc(NC(=O)Nc4cc(C(F)(F)F)ccc4F)c(F)c3)c12 [Example 114, N-4-[4-amino-7-(1-glycoloylpiperidin-4-yl)pyrrolo[2,1-f][1,2,4]triazin-5-yl]-2-fluorophenyl-N′-[2-fluoro-5-(trifluoromethyl)phenyl]urea] | < 10 nM |
| Nc1ncnn2c(C3CCN(C(=O)CO)C3)cc(-c3ccc(NC(=O)Nc4cc(C(F)(F)F)ccc4F)c(F)c3)c12 (centres unmarked) [Example 204, N-{4-[4-amino-7-(1-glycoloylpyrrolidin-3-yl)pyrrolo[2,1-f][1,2,4]triazin-5-yl]-2-fluorophenyl}-N′-[2-fluoro-5-(trifluoromethyl)phenyl]urea] | < 10 nM |
| Nc1ncnn2c(C(O)C(O)CO)cc(-c3ccc(NC(=O)Nc4cc(C(F)(F)F)ccc4F)c(F)c3)c12 (centres unmarked) [Example 255, N-{4-[4-amino-7-(1,2,3-trihydroxypropyl)pyrrolo[2,1-f][1,2,4]triazin-5-yl]-2-flourophenyl}-N′-[2-fluoro-5-(trifluoromethyl)phenyl]urea] | 10 to 100 nM |
| COC[C@H]1CCCN1C(=O)c1cc(-c2ccc(NC(=O)Nc3cc(C(F)(F)F)ccc3F)c(F)c2)c2c(N)ncnn12 [Example 284, N-[4-(4-amino-7-{[2-(methoxymethyl)pyrrolidin-1-yl]carbonyl}pyrrolo[2,1-f][1,2,4]triazin-5-yl)-2-fluorophenyl]-N′-[2-fluoro-5-(trifluoromethyl)phenyl]urea] | 10 to 100 nM |
| Nc1ncnn2c(CCCN3CCS(=O)(=O)CC3)cc(-c3ccc(NC(=O)Nc4cc(C(F)(F)F)ccc4F)c(F)c3)c12 [Example 189, N-(4-{4-amino-7-[3-(1,1-dioxidothiomorpholin-4-yl)propyl]pyrrolo[2,1-f][1,2,4]triazin-5-yl}-2-fluorophenyl)-N′-[2-fluoro-5-(trifluoromethyl)phenyl]urea] | < 10 nM |
| CC(=O)c1cc(-c2ccc(NC(=O)Nc3cc(C(F)(F)F)ccn3)c(F)c2)c2c(N)ncnn12 [Example 259, N-[4-(7-acetyl-4-aminopyrrolo[2,1-f][1,2,4]triazin-5-yl)-2-fluorophenyl]-N′-[4-(trifluoromethyl)pyridin-2-yl]urea] | < 10 nM |
| CC(=O)c1cc(-c2ccc(NC(=O)Nc3cc(C(F)(F)F)ccc3F)cc2)c2c(N)ncnn12 [Example 100, N-[4-(7-acetyl-4-aminopyrrolo[2,1-f][1,2,4]triazin-5-yl)phenyl]-N′-[2-fluoro-5-(trifluoromethyl)phenyl]urea] | 10 to 100 nM |
| CN1CCN(CCc2cc(-c3ccc(NC(=O)Nc4cc(C(F)(F)F)ccc4F)c(F)c3)c3c(N)ncnn23)CC1 [Example 214, N-(4-{4-amino-7-[2-(4-methylpiperazin-1-yl)ethyl]pyrrolo[2,1-f][1,2,4]triazin-5-yl}-2-fluorophenyl)-N′-[2-fluoro-5-(trifluoromethyl)phenyl]urea] | < 10 nM |
